In patent publication US11472811B2, “Pyrazolotriazolopyrimidine derivatives as A2A receptor antagonist” (BEIGENE, LTD., priority 2018, dated 2022):

target: human A2A receptor (A2AR) (Homo sapiens (Human), UniProt P29274); experiment: Luciferase reporter assay (HEK293-A2AR-luc2p/CRE/Hygro cells); format: cell-based; conditions: 3 nM CGS21680, 5 h incubation
Method in brief: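 HEK293 cells stably expressing human A2AR and a CRE-luc2P reporter were seeded in 1% FBS with 1 U/mL adenosine deaminase. After 18 h they were stimulated 5 h with 3 nM CGS21680 plus compound (0.1–10000 nM), then luciferase luminescence was read. IC50 was taken from inhibition curves, with CGS21680 alone set as 100%.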

Chain of human A2A receptor (A2AR) (P29274 whole entry): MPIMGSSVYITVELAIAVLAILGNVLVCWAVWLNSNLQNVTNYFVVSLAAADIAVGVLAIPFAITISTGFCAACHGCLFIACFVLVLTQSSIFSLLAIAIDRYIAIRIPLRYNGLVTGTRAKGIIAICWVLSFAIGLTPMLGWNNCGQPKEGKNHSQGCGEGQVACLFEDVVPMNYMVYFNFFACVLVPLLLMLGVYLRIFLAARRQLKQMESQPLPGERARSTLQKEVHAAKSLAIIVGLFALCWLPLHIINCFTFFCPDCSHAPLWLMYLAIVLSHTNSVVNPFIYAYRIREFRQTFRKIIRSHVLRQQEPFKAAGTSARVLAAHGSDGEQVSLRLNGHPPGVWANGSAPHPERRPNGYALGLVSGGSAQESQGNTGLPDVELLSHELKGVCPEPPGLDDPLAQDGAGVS

Q: Which IC50 does the source give for `CC(C(=O)NCCc1ccccc1)(c1ccccc1)n1ncc2c1nc(N)n1nc(-c3ccco3)nc21` (centres unmarked) [Example 30, 2-(5-amino-2-(furan-2-yl)-7H-pyrazolo[4,3-e][1,2,4]triazolo[1,5-c]pyrimidin-7-yl)-N-phenethyl-2-phenylpropanamide] here?
A: 10.8 nM

Q: Which IC50 does the source give for `COc1ccc(CNC(=O)[C@@](C)(c2ccccc2)n2ncc3c2nc(N)n2nc(-c4ccco4)nc32)nc1` [Example 113B, (R)-2-(5-amino-2-(furan-2-yl)-7H-pyrazolo[4,3-e][1,2,4]triazolo[1,5-c]pyrimidin-7-yl)-N-((5-methoxypyridin-2-yl)methyl)-2-phenylpropanamide] here?
A: 0.9 nM

Q: For `Nc1nc2c(cnn2C(C(=O)NC2CCCC2)c2ccccc2)c2nc(-c3ccco3)nn12` (centres unmarked) [Example 12, 2-(5-amino-2-(furan-2-yl)-7H-pyrazolo[4,3-e][1,2,4]triazolo[1,5-c]pyrimidin-7-yl)-N-cyclopentyl-2-phenylacetamide], which IC50 is on record?
A: 10.2 nM

Q: For `CC(C(=O)NC1CCOCC1)(c1ccccc1)n1ncc2c1nc(N)n1nc(-c3ccco3)nc21` (centres unmarked) [Example 98, 2-(5-amino-2-(furan-2-yl)-7H-pyrazolo[4,3-e][1,2,4]triazolo[1,5-c]pyrimidin-7-yl)-2-phenyl-N-(tetrahydro-2H-pyran-4-yl)propanamide], which IC50 is on record?
A: 19.2 nM

Q: `CC(C(=O)N[C@H]1CCCNC1)(c1ccccc1)n1ncc2c1nc(N)n1nc(-c3ccco3)nc21` (stereo partly drawn) [Example 68, 2-(5-amino-2-(furan-2-yl)-7H-pyrazolo[4,3-e][1,2,4]triazolo[1,5-c]pyrimidin-7-yl)-2-phenyl-N—((S)-piperidin-3-yl)propanamide] was tested. Which IC50 did it give?
A: 72.1 nM

Q: How did the IC50 turn out when `COCCOc1ccc(N2CCN(CCNC(=O)C(C)(c3ccccc3)n3ncc4c3nc(N)n3nc(-c5ccco5)nc43)CC2)cc1` (centres unmarked) [Example 44, 2-(5-amino-2-(furan-2-yl)-7H-pyrazolo[4,3-e][1,2,4]triazolo[1,5-c]pyrimidin-7-yl)-N-(2-(4-(4-(2-methoxyethoxy)phenyl)piperazin-1-yl)ethyl)-2-phenylpropanamide] was run?
A: 22.5 nM

Q: How did the IC50 turn out when `COc1cccnc1CNC(=O)C(C)(c1ccccc1)n1ncc2c1nc(N)n1nc(-c3ccco3)nc21` (centres unmarked) [Example 115, 2-(5-amino-2-(furan-2-yl)-7H-pyrazolo[4,3-e][1,2,4]triazolo[1,5-c]pyrimidin-7-yl)-N-((3-methoxypyridin-2-yl)methyl)-2-phenylpropanamide] was run?
A: 1.9 nM

Q: Which IC50 does the source give for `COCCOCCNC(=O)C(C)(c1ccccc1)n1ncc2c1nc(N)n1nc(-c3ccco3)nc21` (centres unmarked) [Example 75, 2-(5-amino-2-(furan-2-yl)-7H-pyrazolo[4,3-e][1,2,4]triazolo[1,5-c]pyrimidin-7-yl)-N-(2-(2-methoxyethoxy)ethyl)-2-phenylpropanamide] here?
A: 16.9 nM

Q: Which IC50 does the source give for `CC(C(=O)NCC1(O)COC1)(c1cccnc1)n1ncc2c1nc(N)n1nc(-c3ccco3)nc21` (centres unmarked) [Example 89, 2-(5-amino-2-(furan-2-yl)-7H-pyrazolo[4,3-e][1,2,4]triazolo[1,5-c]pyrimidin-7-yl)-N-((3-hydroxyoxetan-3-yl)methyl)-2-(pyridin-3-yl)propanamide] here?
A: 767 nM

Q: `COc1ccccc1CNC(=O)C(CC(C)C)n1ncc2c1nc(N)n1nc(-c3ccco3)nc21` (centres unmarked) [Example 27, 2-(5-amino-2-(furan-2-yl)-7H-pyrazolo[4,3-e][1,2,4]triazolo[1,5-c]pyrimidin-7-yl)-N-(2-methoxybenzyl)-4-methylpentanamide] was tested. Which IC50 did it give?
A: 16.1 nM

Q: How did the IC50 turn out when `CC(C(=O)NCc1cccc(C2(O)CCC2)n1)(c1ccccc1)n1ncc2c1nc(N)n1nc(-c3ccco3)nc21` (centres unmarked) [Example 130, 2-(5-amino-2-(furan-2-yl)-7H-pyrazolo[4,3-e][1,2,4]triazolo[1,5-c]pyrimidin-7-yl)-N-((6-(1-hydroxycyclobutyl)pyridin-2-yl)methyl)-2-phenylpropanamide] was run?
A: 6.9 nM

Q: With `C[C@@](C(=O)N[C@H]1CC[C@@H](O)CC1)(c1ccccc1)n1ncc2c1nc(N)n1nc(-c3ccco3)nc21` [Example 76A, (S)-2-(5-amino-2-(furan-2-yl)-7H-pyrazolo[4,3-e][1,2,4]triazolo[1,5-c]pyrimidin-7-yl)-(cis)-N-(4-hydroxycyclohexyl)-2-phenylpropanamide] as the molecule, how does the IC50 read?
A: 40.4 nM

Q: How did the IC50 turn out when `CC(C(=O)NCC1(O)CC1)(c1ccccc1)n1ncc2c1nc(N)n1nc(-c3ccco3)nc21` (centres unmarked) [Example 88, 2-(5-amino-2-(furan-2-yl)-7H-pyrazolo[4,3-e][1,2,4]triazolo[1,5-c]pyrimidin-7-yl)-N-((1-hydroxycyclopropyl)methyl)-2-phenylpropanamide] was run?
A: 437 nM

Q: Which IC50 does the source give for `CC(C(=O)N[C@H]1CC[C@@H](O)CC1)(c1ccccc1)n1ncc2c1nc(N)n1nc(-c3ccco3)nc21` (relative stereo) [Example 76, 2-(5-amino-2-(furan-2-yl)-7H-pyrazolo[4,3-e][1,2,4]triazolo[1,5-c]pyrimidin-7-yl)-(cis)-N-(4-hydroxycyclohexyl)-2-phenylpropanamide] here?
A: 5.2 nM

Q: Which IC50 does the source give for `C[C@](C(=O)NCc1cccc(C(F)(F)F)n1)(c1ccccc1)n1ncc2c1nc(N)n1nc(-c3ccco3)nc21` [Example 144B, (R)-2-(5-amino-2-(furan-2-yl)-7H-pyrazolo[4,3-e][1,2,4]triazolo[1,5-c]pyrimidin-7-yl)-2-phenyl-N-((6-(trifluoromethyl)pyridin-2-yl)methyl)propanamide] here?
A: 2.1 nM

Q: `C[C@](C(=O)NCc1ccccn1)(c1ccccc1)n1ncc2c1nc(N)n1nc(-c3ccco3)nc21` [Example 66B, (R)-2-(5-amino-2-(furan-2-yl)-7H-pyrazolo[4,3-e][1,2,4]triazolo[1,5-c]pyrimidin-7-yl)-2-phenyl-N-(pyridin-2-ylmethyl)propanamide] was tested. Which IC50 did it give?
A: 2.4 nM

Q: `C[C@](C(=O)N[C@H]1CC[C@H](O)CC1)(c1ccccc1)n1ncc2c1nc(N)n1nc(-c3ccco3)nc21` [Example 52B, (R)-2-(5-amino-2-(furan-2-yl)-7H-pyrazolo[4,3-e][1,2,4]triazolo[1,5-c]pyrimidin-7-yl)-N-((trans)-4-hydroxycyclohexyl)-2-phenylpropanamide] was tested. Which IC50 did it give?
A: 5 nM

Q: `Cc1cccc(CNC(=O)[C@@](C)(c2ccccc2)n2ncc3c2nc(N)n2nc(-c4ccco4)nc32)n1` [Example 108B, (R)-2-(5-amino-2-(furan-2-yl)-7H-pyrazolo[4,3-e][1,2,4]triazolo[1,5-c]pyrimidin-7-yl)-N-((6-methylpyridin-2-yl)methyl)-2-phenylpropanamide] was tested. Which IC50 did it give?
A: 2.5 nM

Q: With `Nc1nc2c(cnn2C(C(=O)NCc2ccc(C(F)(F)F)cc2)c2ccccc2)c2nc(-c3ccco3)nn12` (centres unmarked) [Example 29, 2-(5-amino-2-(furan-2-yl)-7H-pyrazolo[4,3-e][1,2,4]triazolo[1,5-c]pyrimidin-7-yl)-2-phenyl-N-(4-(trifluoromethyl)benzyl)acetamide] as the molecule, how does the IC50 read?
A: 1.3 nM

Q: Which IC50 does the source give for `C[C@](C(=O)N[C@H]1CC[S@@+]([O-])CC1)(c1ccccc1)n1ncc2c1nc(N)n1nc(-c3ccco3)nc21` (single isomer, unassigned) [Example 146B-1] here?
A: 39.3 nM

Q: `CC(C(=O)N[C@@H]1CCCC[C@@H]1O)(c1ccccc1)n1ncc2c1nc(N)n1nc(-c3ccco3)nc21` (stereo partly drawn) [Example 58, 2-(5-amino-2-(furan-2-yl)-7H-pyrazolo[4,3-e][1,2,4]triazolo[1,5-c]pyrimidin-7-yl)-N-((1R,2S)-2-hydroxycyclohexyl)-2-phenylpropanamide] was tested. Which IC50 did it give?
A: 1.8 nM

Q: How did the IC50 turn out when `CC(C(=O)N[C@@H]1CCCOC1)(c1ccccc1)n1ncc2c1nc(N)n1nc(-c3ccco3)nc21` (stereo partly drawn) [Example 60, 2-(5-amino-2-(furan-2-yl)-7H-pyrazolo[4,3-e][1,2,4]triazolo[1,5-c]pyrimidin-7-yl)-2-phenyl-N—((R)-tetrahydro-2H-pyran-3-yl)propanamide] was run?
A: 8.2 nM

Q: How did the IC50 turn out when `CNC(=O)C(C)(c1ccccc1)n1ncc2c1nc(N)n1nc(-c3ccco3)nc21` (centres unmarked) [Example 32, 2-(5-amino-2-(furan-2-yl)-7H-pyrazolo[4,3-e][1,2,4]triazolo[1,5-c]pyrimidin-7-yl)-N-methyl-2-phenylpropanamide] was run?
A: 25 nM

Q: Which IC50 does the source give for `CC(C(=O)Nc1ccccc1)(c1ccccc1)n1ncc2c1nc(N)n1nc(-c3ccco3)nc21` (centres unmarked) [Example 34, 2-(5-amino-2-(furan-2-yl)-7H-pyrazolo[4,3-e][1,2,4]triazolo[1,5-c]pyrimidin-7-yl)-N,2-diphenylpropanamide] here?
A: 9.5 nM

Q: With `CC(C(=O)N[C@H]1CCCC[C@H]1O)(c1ccccc1)n1ncc2c1nc(N)n1nc(-c3ccco3)nc21` (stereo partly drawn) [Example 56, 2-(5-amino-2-(furan-2-yl)-7H-pyrazolo[4,3-e][1,2,4]triazolo[1,5-c]pyrimidin-7-yl)-N-((1S,2R)-2-hydroxycyclohexyl)-2-phenylpropanamide] as the molecule, how does the IC50 read?
A: 10.9 nM

Q: How did the IC50 turn out when `C[C@](C(=O)N[C@H]1COC[C@H]1O)(c1ccccc1)n1ncc2c1nc(N)n1nc(-c3ccco3)nc21` [Example 107B, (R)-2-(5-amino-2-(furan-2-yl)-7H-pyrazolo[4,3-e][1,2,4]triazolo[1,5-c]pyrimidin-7-yl)-N-((3S,4S)-4-hydroxytetrahydrofuran-3-yl)-2-phenylpropanamide] was run?
A: 32.2 nM

Q: With `Cc1ccc(CNC(=O)C(C)(c2ccccc2)n2ncc3c2nc(N)n2nc(-c4ccco4)nc32)nc1` (centres unmarked) [Example 109, 2-(5-amino-2-(furan-2-yl)-7H-pyrazolo[4,3-e][1,2,4]triazolo[1,5-c]pyrimidin-7-yl)-N-((5-methylpyridin-2-yl)methyl)-2-phenylpropanamide] as the molecule, how does the IC50 read?
A: 1 nM

Q: With `Nc1nc2c(cnn2C(C(=O)NC2CCCCC2)c2ccccc2)c2nc(-c3ccco3)nn12` (centres unmarked) [Example 2, 2-(5-amino-2-(furan-2-yl)-7H-pyrazolo[4,3-e][1,2,4]triazolo[1,5-c]pyrimidin-7-yl)-N-cyclohexyl-2-phenylacetamide] as the molecule, how does the IC50 read?
A: 11.9 nM

Q: With `Nc1nc2c(cnn2C(C(=O)NCc2ccccc2)c2ccccc2)c2nc(-c3ccco3)nn12` (centres unmarked) [Example 1, 2-(5-amino-2-(furan-2-yl)-7H-pyrazolo[4,3-e][1,2,4]triazolo[1,5-c]pyrimidin-7-yl)-N-benzyl-2-phenylacetamide] as the molecule, how does the IC50 read?
A: 1.4 nM
